Results as given in the supplement of paper PMC10307832.

Columns and labels:
Experiment in all cases: relative viability (nuclei count vs DMSO), 5 days (fraction); higher = more cells survive
[1] = compound: CC1=C(C(=O)N2C=CSC2=N1)CCN3CCC(=C(C4=CC=CC=C4)C5=CC=C(C=C5)F)CC3 + Cc1nc(NC(=O)N2CCC[C@H]2C(N)=O)sc1-c1ccnc(C(C)(C)C(F)(F)F)c1 [Alpelisib] (partner 2 µM)
How it was run: (§1)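 Lung cancer cell lines in 1536-well plates were dosed by pin tool the day after seeding, either with one drug alone or with a fixed anchor-drug dose plus five library-drug doses (not always all listed) in √10 steps. After 5 days, cells were fixed and their nuclei stained in one step (final 0.05% Triton X-100, 1% formaldehyde, 1 ug/ml Hoechst), then counted on 4× images. Relative viability is the nuclei count in treated wells divided by that in vehicle wells. Values are medians of duplicate plates.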

[2] = compound: CC1=C(C(=O)N2C=CSC2=N1)CCN3CCC(=C(C4=CC=CC=C4)C5=CC=C(C=C5)F)CC3 + Cc1cc(Nc2cc(N3CCN(C)CC3)nc(Sc3ccc(NC(=O)C4CC4)cc3)n2)n[nH]1 [Tozasertib] (partner 0.1 µM)
How it was run: as §1

[3] = compound: CC1=C(C(=O)N2C=CSC2=N1)CCN3CCC(=C(C4=CC=CC=C4)C5=CC=C(C=C5)F)CC3 + CCNC(=O)c1noc(-c2cc(C(C)C)c(O)cc2O)c1-c1ccc(CN2CCOCC2)cc1 [Luminespib] (partner 0.01 µM)
How it was run: as §1

[4] = compound: CC1=C(C(=O)N2C=CSC2=N1)CCN3CCC(=C(C4=CC=CC=C4)C5=CC=C(C=C5)F)CC3 + Cc1nc(Nc2ncc(C(=O)Nc3c(C)cccc3Cl)s2)cc(N2CCN(CCO)CC2)n1 [Dasatinib] (partner 0.075 µM)
How it was run: as §1

Row | Cell Line | relative viability ([1]; first compound 0.08 µM) | relative viability ([1]; first compound 0.253 µM) | relative viability ([1]; first compound 0.8 µM) | relative viability ([1]; first compound 2.53 µM) | relative viability ([1]; first compound 8 µM) | relative viability ([2]; first compound 0.08 µM) | relative viability ([2]; first compound 0.253 µM) | relative viability ([2]; first compound 0.8 µM) | relative viability ([2]; first compound 2.53 µM) | relative viability ([2]; first compound 8 µM) | relative viability ([3]; first compound 0.08 µM) | relative viability ([3]; first compound 0.253 µM) | relative viability ([3]; first compound 0.8 µM) | relative viability ([3]; first compound 2.53 µM) | relative viability ([3]; first compound 8 µM) | relative viability ([4]; first compound 0.08 µM) | relative viability ([4]; first compound 0.253 µM) | relative viability ([4]; first compound 0.8 µM) | relative viability ([4]; first compound 2.53 µM) | relative viability ([4]; first compound 8 µM)
1 | NCI-H1734 | 0.727 | 0.648 | 0.718 | 0.713 | 0.422 | 0.253 | 0.237 | 0.266 | 0.27 | 0.234 | 0.202 | 0.174 | 0.205 | 0.166 | 0.183 | 0.484 | 0.438 | 0.458 | 0.468 | 0.35
2 | NCI-H1755 | 0.807 | 0.856 | 0.994 | 1.07 | 0.69 | 0.553 | 0.614 | 0.604 | 0.547 | 0.421 | 0.467 | 0.548 | 0.374 | 0.333 | 0.519 | 0.373 | 0.422 | 0.462 | 0.401 | 0.269
3 | NCI-H1793 | 0.642 | 0.654 | 0.663 | 0.886 | 0.553 | 0.354 | 0.339 | 0.312 | 0.362 | 0.258 | 0.167 | 0.207 | 0.161 | 0.178 | 0.168 | 0.363 | 0.328 | 0.415 | 0.467 | 0.233
4 | NCI-H1915 | 1.1 | 1.11 | 1.07 | 1.06 | 0.782 | 0.438 | 0.442 | 0.444 | 0.432 | 0.318 | 1.01 | 0.655 | 0.797 | 0.656 | 0.499 | 0.371 | 0.315 | 0.305 | 0.374 | 0.252
5 | NCI-H1944 | 0.917 | 0.815 | 0.842 | 0.865 | 0.777 | 0.26 | 0.273 | 0.226 | 0.224 | 0.204 | 0.782 | 0.926 | 0.751 | 0.775 | 0.584 | 0.243 | 0.237 | 0.193 | 0.215 | 0.242
6 | NCI-H1975 | 0.674 | 0.616 | 0.656 | 0.667 | 0.451 | 0.852 | 0.63 | 0.816 | 0.922 | 0.37 | 0.202 | 0.303 | 0.167 | 0.292 | 0.181 | 0.355 | 0.395 | 0.345 | 0.386 | 0.304
7 | NCI-H1993 | 0.683 | – | 0.694 | 0.699 | 0.669 | 0.627 | 0.502 | 0.557 | 0.64 | 0.495 | 0.79 | 0.841 | 0.916 | 0.897 | 0.768 | 0.513 | 0.533 | 0.559 | 0.596 | 0.507
8 | NCI-H2009 | 1.26 | 1.16 | 1.2 | 1.19 | 1.08 | 0.775 | 0.668 | 0.738 | 0.756 | 0.478 | 0.973 | 0.955 | 1.08 | 1.11 | 0.9 | 0.369 | 0.304 | 0.28 | 0.332 | 0.285
9 | NCI-H2023 | 0.579 | 0.587 | 0.549 | 0.697 | 0.584 | 0.446 | 0.265 | 0.393 | 0.44 | 0.272 | 1.37 | 0.783 | 0.864 | 0.946 | 0.518 | 0.549 | 0.58 | 0.602 | 0.513 | 0.363
10 | NCI-H2085 | 0.869 | 0.909 | 0.928 | 0.943 | 0.773 | 0.896 | 0.735 | 0.747 | 0.844 | 0.702 | 0.361 | 0.362 | 0.458 | 0.392 | 0.323 | 0.279 | 0.224 | 0.202 | 0.242 | 0.258
11 | NCI-H2087 | 0.999 | 1.1 | 1.06 | 1.24 | 0.763 | 0.298 | 0.245 | 0.276 | 0.242 | 0.23 | 0.132 | 0.208 | 0.22 | 0.185 | 0.142 | 0.91 | 0.87 | 0.882 | 0.752 | 0.637
12 | NCI-H2126 | 0.764 | 0.766 | 0.742 | 0.816 | 0.785 | 0.889 | 0.913 | 0.846 | 0.986 | 0.739 | 0.613 | 1.08 | 0.903 | 0.92 | 0.843 | 0.529 | 0.553 | 0.565 | 0.634 | 0.689
13 | NCI-H2170 | 0.753 | 0.771 | 0.844 | 0.836 | 0.76 | 0.704 | 0.804 | 0.741 | 0.781 | 0.404 | 0.516 | 0.733 | 0.745 | 0.838 | 0.537 | 0.516 | 0.472 | 0.65 | 0.669 | 0.496
14 | NCI-H2228 | 0.75 | 0.829 | 0.734 | 0.595 | 0.786 | 0.278 | 0.237 | 0.227 | 0.232 | 0.282 | 0.126 | 0.194 | 0.181 | 0.137 | 0.101 | 0.542 | 0.555 | 0.562 | 0.546 | 0.338
15 | NCI-H2347 | 0.942 | 0.855 | 1.18 | 1.02 | 0.791 | 0.439 | 0.554 | 0.525 | 0.471 | 0.487 | 0.367 | 0.361 | 0.353 | 0.334 | 0.547 | 0.263 | 0.31 | 0.311 | 0.48 | 0.283
16 | NCI-H2405 | 0.74 | 0.798 | 0.914 | 0.792 | 0.731 | 0.777 | 0.767 | 0.749 | 0.601 | 0.618 | 0.746 | 0.744 | 0.753 | 0.649 | 0.564 | 0.23 | 0.223 | 0.208 | 0.186 | 0.184
